This is an account of results in patent US10538561B2, “Peptide for treating inflammatory diseases” (priority 2015, dated 2020).

Like-named read-outs stand apart in the source and are kept apart here.

For data set [1], the system named is Human endothelial cells (EA.hy 926). Description: Inhibition of FBS stimulated endothelial cell proliferation (MTT). Type of data set: cell-based. Here is the method: Cell line: Human endothelial cells (EA.hy 926); test item: IS 181: treatment regimen: multiple additions (3)-72 hours; concentration range: 1 6 g/ml to 5000 6 g/ml (triplicate wells); sera condition: medium containing 10% FBS. […] The cells were then subjected to complete serum starvation. The cells were retreated with 10% FBS to stimulate cellular proliferation. […] Inhibition of FBS stimulated cell proliferation was measured using MTT assay. End point: percentage inhibition of FBS stimulated cell proliferation. Positive controls: anthralin; paclitaxel.

Data set [2] shares this test system. The experiment in a line: DNA fragmentation in endothelial cells. The format is cell-based. On the procedure: Cell lines: Human endothelial cells (EA.Hy 926); test item: IS 181; treatment regimen: multiple additions (2)—48 hours; concentration range: 100 μg/ml to 5000 μg/ml (Duplicate wells); sera condition: medium containing 1% FBS. […] Cells were lysed and fragmented DNA was precipitated using PEG/NaCl solution. The fragmented DNA was incubated with 0.2 μg/ml of Hoechst 33258 dye and fluorescence was read at 360 ex/460 em. End point: Percentage induction of DNA fragmentation with respect to untreated. Positive control: anthralin. IS 181 led to induction of DNA fragmentation in Ea.hy.926 cells at all the concentrations tested. […] The overall effect of IS 181 on induction of DNA fragmentation with respect to untreated in Ea.hy.926 cells ranged from 15.09% to 64.15% (FIGS. 10A-10B and Table-10).

Data set [3] concerns Human Keratinocytes (HaCaT). The experiment in a line: In vitro combination Anthralin and IS 181 (MTT). Type of data set: cell-based. The conditions noted are these: Homo sapiens, 72 h, read-out: IC 50 value of Anthralin. On the procedure:
(§1) Percentage cytotoxicity was determined using MTT assay.

Data set [4] can be described thus: In vitro combination Anthralin and IS 181 (MTT). The conditions noted are these: human, HaCaT keratinocytes, read-out: percent inhibition of cell viability/cytotoxicity. Type of data set: cell-based, Human. Here is the method: as §1
In a further data set the test system is Caspase-3 enzyme. The experiment in a line: Caspase-3 assay. Type of data set: cell-based, Human. To be noted: HaCaT, 0.1 μM. On the procedure:
Cell lines: Human Keratinocytes (HaCaT); Test Item (TI): IS 181; Treatment regimen: Multiple additions (2)—48 hours; Concentration range: 100 μg/ml to 5000 μg/ml (Duplicate wells); Sera Condition: Medium containing 1% FBS. […] Cells were lysed and protein was estimated. The above lysates were processed further for Caspase-3 enzyme activity assay using colorimetric based method. Percentage induction of Caspase-3 enzyme activation with respect to untreated; Positive control: Anthralin. IS 181 led to induction of Caspase-3 enzyme activation in HaCaT cells at all the concentrations tested except at 100 μg/ml. […] (FIGS. 7A-7B)

In data set [5] the test system is Human Keratinocytes (HaCaT). The experiment in a line: DNA fragmentation assay in HaCaT. Type of data set: cell-based. Here is the method:
Cells were lysed and fragmented DNA was precipitated using PEG/NaCl solution. The fragmented DNA was incubated with 0.2 μg/ml of Hoechst 33258 dye and fluorescence was read at 360 ex/460 em. End point: Percentage induction of DNA fragmentation with respect to untreated Positive control. Anthralin. IS 181 led to induction of DNA fragmentation in HaCaT cells at all the concentrations tested except at 100 μg/ml. […] The overall effect of IS 181 on induction of DNA fragmentation with respect to untreated in HaCaT cells ranged from −18.8% to 83.3%. (FIG. 8 and Table-6).

Take `O=C1c2c(O)cccc2Cc2cccc(O)c21` [Anthralin, reference compound]: the “Absorbance (Mean ± SD) at 540 nm” value in data set [1] (EA.hy926, 0.01 μM) is reported as 0.46 ± 0.025; in data set [1] (EA.hy926, 0.1 μM) it was 0.45 ± 0.018; in data set [1] (EA.hy926, 0.5 μM), 0.42 ± 0.013. Besides, the inhibition at 0.01 µM in data set [1] (Homo sapiens, EA.hy 926, EA.hy926, 0.01 μM, read-out: ¾ Inhibition of FBS stimulated cell growth) turned out to be 7.21%. Further, the inhibition at 0.1 µM in data set [1] (Homo sapiens, EA.hy 926, EA.hy926, 0.1 μM, read-out: ¾ Inhibition of FBS stimulated cell growth) came to 14.6%. Moreover, the inhibition at 0.5 µM in data set [1] (Homo sapiens, EA.hy 926, EA.hy926, 0.5 μM, read-out: ¾ Inhibition of FBS stimulated cell growth) is 20.4%. Besides, the “% induction of DNA fragmentation” value in data set [2] (EA.hy926, 0.1 μM) is on record as 3.77%; in data set [2] (EA.hy926, 0.5 μM) it was 13.21%; in data set [5] (0.1 μM), 60.42%; in data set [5] (0.5 μM) it was 168.75%. Moreover, the IC50 was 0.558 µM in data set [3] (IS 181 0 μg/ml); 0.628 µM in data set [3] (with IS 181 10 μg/ml); 0.584 µM in data set [3] (with IS 181 50 μg/ml); 0.522 µM in data set [3] (with IS 181 100 μg/ml); 0.0973 µM in data set [3] (with IS 181 500 μg/ml); 0.0271 µM in data set [3] (with IS 181 1000 μg/ml). For the same compound, the IC50 in data set [3] (with IS 181 2000 μg/ml) is 0.0001 µM. Further, the cytotoxicity at 72 h, 0.01 µM in data set [4] (Anthralin 0.01 μM alone) was 0.75%. The cytotoxicity at 72 h, 0.05 µM in data set [4] (Anthralin 0.05 μM alone) was -2.45%. In data set [4] (Anthralin 0.1 μM alone), the cytotoxicity at 72 h, 0.1 µM was 9.41%. The cytotoxicity at 72 h, 0.5 µM in data set [4] (Anthralin 0.5 μM alone) turned out to be 41.3%. Moreover, the cytotoxicity at 72 h, 1 µM in data set [4] (Anthralin 1 μM alone) worked out at 78.9%. Further, the cytotoxicity at 72 h, 5 µM in data set [4] (Anthralin 5 μM alone) amounted to 87.9%. Also, the “Percentage induction of caspase-3 enzyme activation with respect to untreated” value in the data set with Caspase-3 enzyme is recorded as 101.85.
